Experimental data as given in PubChem BioAssay AID1963865 (Molecular Pharmacology Branch, DTP, NCI, 2024).

Tested on: KRAS PDC multicell spheroid viability
Test: Anticancer human tumor 825966-067-R-J1-PDC patient-derived colon carcinoma cell line growth inhibition [KRAS2]
Settings: for IC50: curve of first compound; for viability, T/C: stronger effect = lower value
How it was run: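 Combination screen of spheroid viability in tumor-cell co-cultures with endothelial (HUVEC) and mesenchymal stem cell stroma. Each agent was tested in half-log dilutions, topping at clinical Cmax or at 10 microM without a known Cmax.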

[1] = second compound 0.1 µM, first compound 0.0316 µM
[2] = second compound 0.316 µM, first compound 0.0316 µM
[3] = second compound 1 µM, first compound 0.0316 µM
[4] = second compound 3.16 µM, first compound 0.0316 µM
[5] = second compound 10 µM, first compound 0.0316 µM
[6] = second compound 0.1 µM, first compound 0.1 µM
[7] = second compound 0.1 µM, first compound 0.316 µM
[8] = second compound 0.1 µM, first compound 1 µM
[9] = second compound 0.1 µM, first compound 3.16 µM
[10] = second compound 0.1 µM, first compound 10 µM
[11] = second compound 0.316 µM, first compound 0.1 µM
[12] = second compound 0.316 µM, first compound 0.316 µM
[13] = second compound 0.316 µM, first compound 1 µM
[14] = second compound 0.316 µM, first compound 3.16 µM
[15] = second compound 0.316 µM, first compound 10 µM
[16] = second compound 1 µM, first compound 0.1 µM
[17] = second compound 1 µM, first compound 0.316 µM
[18] = second compound 1 µM, first compound 1 µM
[19] = second compound 1 µM, first compound 3.16 µM
[20] = second compound 1 µM, first compound 10 µM
[21] = second compound 3.16 µM, first compound 0.1 µM
[22] = second compound 3.16 µM, first compound 0.316 µM
[23] = second compound 3.16 µM, first compound 1 µM
[24] = second compound 3.16 µM, first compound 3.16 µM
[25] = second compound 3.16 µM, first compound 10 µM
[26] = second compound 10 µM, first compound 0.1 µM
[27] = second compound 10 µM, first compound 0.316 µM
[28] = second compound 10 µM, first compound 1 µM
[29] = second compound 10 µM, first compound 3.16 µM
[30] = second compound 10 µM, first compound 10 µM
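Note: spheroids exposed to compounds for 7 days.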
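Throughout, for viability, T/C: 100% = DMSO vehicle control viability.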

Work on CC(=O)Nc1cccc(-n2c(=O)n(C3CC3)c(=O)c3c(Nc4ccc(I)cc4F)n(C)c(=O)c(C)c32)c1 + COc1cc2nc(C)nc(NC(C)c3cc(N)cc(C(F)(F)F)c3)c2cc1OC1CCOC1 yielded an IC50 (second compound 0.1 µM) greater than 31.6 nM, an IC50 (second compound 0.316 µM) of 29.6 nM and an IC50 (second compound 1 µM) of 18.5 nM. For the same compound, the IC50 (second compound 3.16 µM) was 3.25 nM, the IC50 (second compound 10 µM) was less than 0.1 nM and the viability, T/C (second compound 0.1 µM, first compound 0.0001 µM) was 95.3%. The viability, T/C (second compound 0.1 µM, first compound 0.000316 µM) was 114%, the viability, T/C (second compound 0.1 µM, first compound 0.001 µM) was 144% and the viability, T/C (second compound 0.1 µM, first compound 0.00316 µM) was 128%. The viability, T/C (second compound 0.1 µM, first compound 0.01 µM) was 64%, the viability, T/C [1] was 84.8% and the viability, T/C (second compound 0.316 µM, first compound 0.0001 µM) was 95%. The viability, T/C (second compound 0.316 µM, first compound 0.000316 µM) was 126%, the viability, T/C (second compound 0.316 µM, first compound 0.001 µM) was 128% and the viability, T/C (second compound 0.316 µM, first compound 0.00316 µM) was 110%. The viability, T/C (second compound 0.316 µM, first compound 0.01 µM) was 94.2%, the viability, T/C [2] was 47.3% and the viability, T/C (second compound 1 µM, first compound 0.0001 µM) was 98.5%. The viability, T/C (second compound 1 µM, first compound 0.000316 µM) was 103%, the viability, T/C (second compound 1 µM, first compound 0.001 µM) was 113% and the viability, T/C (second compound 1 µM, first compound 0.00316 µM) was 114%. The viability, T/C (second compound 1 µM, first compound 0.01 µM) was 72.3%, the viability, T/C [3] was 30.6% and the viability, T/C (second compound 3.16 µM, first compound 0.0001 µM) was 109%. For the same compound, the viability, T/C (second compound 3.16 µM, first compound 0.000316 µM) was 109%, the viability, T/C (second compound 3.16 µM, first compound 0.001 µM) was 128% and the viability, T/C (second compound 3.16 µM, first compound 0.00316 µM) was 50.9%. The viability, T/C (second compound 3.16 µM, first compound 0.01 µM) was 18.8%, the viability, T/C [4] was 5.41% and the viability, T/C (second compound 10 µM, first compound 0.0001 µM) was 2.53%. For the same compound, the viability, T/C (second compound 10 µM, first compound 0.000316 µM) was 2.62%, the viability, T/C (second compound 10 µM, first compound 0.001 µM) was 0.97% and the viability, T/C (second compound 10 µM, first compound 0.00316 µM) was 0.39%. The viability, T/C (second compound 10 µM, first compound 0.01 µM) was 0.39% and the viability, T/C [5] was 0.27%.

In the case of COC(=O)c1ccc2c(C(=Nc3ccc(N(C)C(=O)CN4CCN(C)CC4)cc3)c3ccccc3)c(O)[nH]c2c1 + COc1cc2nc(C)nc(NC(C)c3cc(N)cc(C(F)(F)F)c3)c2cc1OC1CCOC1, the IC50 (second compound 0.1 µM) is reported as 1670 nM, the IC50 (second compound 0.316 µM) is reported as 1570 nM and the IC50 (second compound 1 µM) is reported as 836 nM. For the same compound, the IC50 (second compound 3.16 µM) was 592 nM, the IC50 (second compound 10 µM) was less than 31.6 nM and the viability, T/C [1] was 89.6%. For the same compound, the viability, T/C [6] was 95.6%, the viability, T/C [7] was 81.4% and the viability, T/C [8] was 92.9%. It also gave a viability, T/C [9] of 0.3%, a viability, T/C [10] of 0.16% and a viability, T/C [2] of 94.4%. It also gave a viability, T/C [11] of 79.9%, a viability, T/C [12] of 82.4% and a viability, T/C [13] of 81.8%. It also gave a viability, T/C [14] of 0.33%, a viability, T/C [15] of 0.13% and a viability, T/C [3] of 88.1%. The viability, T/C [16] was 98.1%, the viability, T/C [17] was 92.3% and the viability, T/C [18] was 42.1%. The viability, T/C [19] was 0.16%, the viability, T/C [20] was 0.13% and the viability, T/C [4] was 95%. For the same compound, the viability, T/C [21] was 103%, the viability, T/C [22] was 101% and the viability, T/C [23] was 8.39%. For the same compound, the viability, T/C [24] was 0.1%, the viability, T/C [25] was 2% and the viability, T/C [5] was 9.43%. The viability, T/C [26] was 10.3%, the viability, T/C [27] was 1.07% and the viability, T/C [28] was 0.34%. The viability, T/C [29] was 0.13% and the viability, T/C [30] was 0.58%.

In the case of COc1cc(Nc2ncc3c(n2)-c2ccc(Cl)cc2C(c2c(F)cccc2OC)=NC3)ccc1C(=O)O + COc1cc2nc(C)nc(NC(C)c3cc(N)cc(C(F)(F)F)c3)c2cc1OC1CCOC1, the IC50 (second compound 0.1 µM) is reported as greater than 10000 nM, the IC50 (second compound 0.316 µM) is reported as greater than 10000 nM and the IC50 (second compound 1 µM) is reported as greater than 10000 nM. The IC50 (second compound 3.16 µM) was greater than 10000 nM, the IC50 (second compound 10 µM) was less than 31.6 nM and the viability, T/C [1] was 124%. The viability, T/C [6] was 93.5%, the viability, T/C [7] was 144% and the viability, T/C [8] was 171%. For the same compound, the viability, T/C [9] was 136%, the viability, T/C [10] was 130% and the viability, T/C [2] was 105%. For the same compound, the viability, T/C [11] was 123%, the viability, T/C [12] was 144% and the viability, T/C [13] was 140%. For the same compound, the viability, T/C [14] was 133%, the viability, T/C [15] was 145% and the viability, T/C [3] was 87%. It also gave a viability, T/C [16] of 155%, a viability, T/C [17] of 156% and a viability, T/C [18] of 137%. For the same compound, the viability, T/C [19] was 145%, the viability, T/C [20] was 118% and the viability, T/C [4] was 52%. For the same compound, the viability, T/C [21] was 127%, the viability, T/C [22] was 81.3% and the viability, T/C [23] was 110%. It also gave a viability, T/C [24] of 69.3%, a viability, T/C [25] of 112% and a viability, T/C [5] of 3.07%. It also gave a viability, T/C [26] of 1.62%, a viability, T/C [27] of 0.85% and a viability, T/C [28] of 2.07%. It also gave a viability, T/C [29] of 7.95% and a viability, T/C [30] of 1.44%.

COc1cc2nccc(Oc3ccc(NC(=O)C4(C(=O)Nc5ccc(F)cc5)CC4)cc3)c2cc1OC + COc1cc2nc(C)nc(NC(C)c3cc(N)cc(C(F)(F)F)c3)c2cc1OC1CCOC1 gave an IC50 (second compound 0.1 µM) of 1560 nM, an IC50 (second compound 0.316 µM) of 1460 nM and an IC50 (second compound 1 µM) of 1630 nM. The IC50 (second compound 3.16 µM) was 675 nM, the IC50 (second compound 10 µM) was less than 31.6 nM and the viability, T/C [1] was 80.9%. It also gave a viability, T/C [6] of 87.8%, a viability, T/C [7] of 83.9% and a viability, T/C [8] of 75.1%. It also gave a viability, T/C [9] of 9.68%, a viability, T/C [10] of 7.53% and a viability, T/C [2] of 96.2%. For the same compound, the viability, T/C [11] was 81.1%, the viability, T/C [12] was 77.5% and the viability, T/C [13] was 71.4%. It also gave a viability, T/C [14] of 6.75%, a viability, T/C [15] of 4.21% and a viability, T/C [3] of 77.1%. It also gave a viability, T/C [16] of 98.6%, a viability, T/C [17] of 78.5% and a viability, T/C [18] of 83.5%. For the same compound, the viability, T/C [19] was 4.2%, the viability, T/C [20] was 5.34% and the viability, T/C [4] was 82.3%. It also gave a viability, T/C [21] of 80.6%, a viability, T/C [22] of 91.9% and a viability, T/C [23] of 31.9%. The viability, T/C [24] was 2.11%, the viability, T/C [25] was 0.21% and the viability, T/C [5] was 21%. It also gave a viability, T/C [26] of 3.18%, a viability, T/C [27] of 1.6% and a viability, T/C [28] of 1.58%. For the same compound, the viability, T/C [29] was 0.32% and the viability, T/C [30] was 0.7%.
